# Measured values published in US10548829B2, “Oral care compositions and methods of use” (priority 2016, dated 2020).
# Columns and labels:
# [1] = Growth inhibition (OD610), mixed chemostat culture; type: cell-based, A. viscosus, L. casei, S. oralis, F. nucleatum, V. parvula
# Description: (§1) Single species of Streptococcus gordonii (S. gordonii, S.g) strain V288 (ATCC #35105), Streptococcus sobrinus (S. sobrinus, S.$) strain SL1[CCM 6070, CNCTC 9/89] (ATCC #33478), or Aggregatibacter actinomycetemcomitans were analyzed. Also, a mixed culture containing Actinomyces viscosus (A. viscosus, A.v) strain (ATCC, #43146), Lactobacillus casei (L. casei, L.c) strain (ATCC #334), Streptococcus oralis (S. oralis, S. o) strain (ATCC #35037), Fusobacterium nucleatum (F. nucleatum, F. n) strain (ATCC #10953), and Veilonella parvula (V. parvula, V. p) strain (ATCC #17745) was also analyzed for growth inhibition/toxicity activity. Bacteria were cultured overnight in approximately 20 ml of BHI broth (BD, cat #237500) or maintained in a specialized complex modified BHI II medium in a continuous culture chemostat at 37° C. respectively. The following day, the OD610 were determined and solutions diluted to an OD610 of 0.2 or 0.1 respectively for the assay.
# (§2) Triclosan (positive control) was prepared as a 10% stock in 100% EtOH and 3 fold serial dilutions were performed in 100% EtOH. An appropriate amount of the diluted samples was then transferred into a 96 well clear plate such that the resulting final concentration of the test samples ranged from either a 2 mM or 4 mM (highest concentration) to 0.0078 mM or 0.0156 mM (lowest concentration respectively) in 2% DMSO in 100 μl media per well. Triclosan (TCN) ranged from 0.01% to 1.67e-6% in 1% EtOH. For Zinc acetate, in order to mimic the 2:1 molar ratio (ligand:Zinc) in the Naringin:Zinc complex, the final concentration ranged from 0.7 mM to 0.0027 mM for samples with 2 mM as the highest concentration and 1.33 mM to […] for samples with 4 mM as the highest concentration in 2% DMSO. Next, 100 μl of bacterial culture at OD610 0.2 were introduced to the wells with the test samples. The wells were thoroughly mixed and incubated at 37° C. overnight. The plates were read using an Envision plate reader (PerkinElmer, Waltham, Mass.) at 610 nm.
# (§3) The IC50 for the complex, Product 5, was determined for Streptococcus gordonii (S. gordonii), Streptococcus sobrinus (S. sobrinus), Aggregatibacter actinomycetemcomitans (A. actinomycetemcomitans), and also for the mixed bacterial culture. […] Triclosan (TCN) was included as a positive control for bacterial inhibition.
# (§4) Antimicrobial characterization was also performed on mixed culture solutions having at least five microbial species present. A mixed culture containing Actinomyces viscosus (A. viscosus, A.v) (ATCC, #43146), Lactobacillus casei (L. casei, L.c) (ATCC #334), Streptococcus oralis (S. oralis, S.o) (ATCC #35037), Fusobacterium nucleatum (F. nucleatum, F.n) (ATCC #10953) and Veilonella parvula (V. parvula, V.p) (ATCC #17745) was maintained in a specialized complex medium (Modified BHI II Medium) in a continuous culture chemostat at 37° C. Approximately 10 ml of the culture was removed and the OD610 was determined. The assay was performed using cultures at two concentrations; 0.03 and 0.1 at OD610. […] Triclosan (positive control) was prepared as a 10% stock in 100% EtOH and 3 fold serial dilutions were performed in 100% EtOH. […] For Zinc Acetate, in order to mimic the 2:1 ratio (ligand:Zinc) composition as in the complex, the final concentration range from 0.7 mM to 0.0027 mM in 2% DMSO was used instead.
# (§5) A 100 μl of bacterial culture at chosen OD610 (0.03 or 0.1) was introduced into the wells with the test samples. The wells were thoroughly mixed and plates incubated overnight in a 37° C. incubator with or without 5% CO2. After approximately 12-13 hours of treatment, the plate was read using Envision plate reader (Serial #1040984), absorbance at 610 nm. The % inhibition relative to control was determined as described for previously described antimicrobial protocols, supra.
# [2] = test system: mixed culture containing Actinomyces viscosus, Lactobacillus casei, Streptococcus oralis, Fusobacterium nucleatum and Veilonella parvula; assay: Growth inhibition (OD610), mixed chemostat culture; type: cell-based, A. viscosus, L. casei, S. oralis, F. nucleatum, V. parvula; conditions: mixed species cultures; 1% EtOH; data not shown
# Description: as §1, §2, §3, §4, §5
# [3] = test system: Streptococcus gordonii; assay: Growth inhibition (OD610), single culture; type: cell-based; conditions: Streptococcus gordonii
# Description: as §1, §2, §3
# (§6) Further characterization was performed on planktonic oral microbes; Streptococcus sobrinus (Cariongenic—strain-SL1[CCM 6070, CNCTC 9/89] (ATCC cat. #33478), Streptococcus gordonii (Arginolytic—strain V288 (ATCC cat. #35105), Actinomyces viscosus) as well late colonizer (Gram −), pathogenic Aggregatibacter actinomycetemcomitans. All microbes were grown in their respective culture media: Streptococcus sobrinus and Streptococcus gordonii in BHI broth (BD, cat #237500), Aggregatibacter actinomycetemcomitans in BHI broth supplemented with 0.5% Yeast Extract (BD, cat #210941) and Actinomyces viscosus in Trypticase Soy Broth (BD, cat #211768) supplemented with 0.5% Yeast Extract (BD, cat #210941). Bacteria were cultured overnight in 37° C., 5% CO2 in approximately 20 ml of the appropriate culture broth. The following day, the OD610 was determined and solutions were diluted to 0.2 for the assay.
# (§7) Triclosan (positive control) was prepared as a 10% stock in 100% EtOH and 3 fold serial dilutions were done in 100% EtOH. […] For Naringin+Zinc combination, while the highest total overall concentration was 2 mM, the exact concentration was Naringin (1.3 mM) and Zinc Acetate (0.7 mM) due to the compositions 2:1 molar ratio. For Zinc Acetate, in order to mimic the 2:1 ratio (ligand:Zinc) composition as in the complex, the final concentration ranged from 0.7 mM to 0.0027 mM in 2% DMSO.
# (§8) A 100 μl aliquot of bacterial culture at OD610 0.2 were introduced to the wells with the test samples. The wells were thoroughly mixed and plates incubated overnight in a 37° C. incubator with or without 5% CO2 depending upon the bacterial species.
# [4] = test system: Streptococcus sobrinus; assay: Growth inhibition (OD610), single culture; type: cell-based; conditions: Streptococcus sobrinus
# Description: as §1, §2, §3, §6, §7, §8
# [5] = test system: Aggregatibacter actinomycetemcomitans; assay: Growth inhibition (OD610), single culture; type: cell-based; conditions: Aggregatibacter actinomycetemcomitans
# Description: as §1, §2, §3, §6, §7, §8
# [6] = test system: planktonic oral bacterial species (S. sobrinus, S. gordonii, A. actinomycetemcomitans, A. viscosus, mixed cultures); assay: Growth inhibition, summary statements over the single, co- and mixed cultures tested; type: cell-based, oral bacteria
# Description: as §1, §2, §3, §6, §7, §8
compound,measurement,setting,value
"Oc1cc(Cl)ccc1Oc1ccc(Cl)cc1Cl [TCN, Triclosan]",IC50,[1]; Mixed Species (aerobic),7.6 µM
same,IC50,[1]; Mixed Species (anaerobic),4.8 µM
same,"IC50 of positive control, range in ppm",[2],1.4-2.2 ppm
same,IC50,[3],6 ± 0.85 µM
same,IC50,[4],6 ± 1.7 µM
same,IC50,[5],0.61 ± 0.46 µM
same,"IC50 range over cultures tested, corresponding ppm","[6]; S. sobrinus, S. gordonii, A. actinomycetemcomitans and mixed chemostat cultures",0.18-2.2 ppm
same,IC50,"[6]; read-out: concentration that inhibited 50% of the bacterial growth (IC50), range over cultures tested",0.61 to 7.6 µM
same,"IC50 of positive control, range in ppm","[6]; same species of bacteria cultures (single and co-cultures), 1% EtOH",1-2.7 ppm
